The source of these data is paper PMC5397059, “Design, synthesis and structure-activity relationship study of wollamide B; a new potential anti TB agent” (PLoS ONE, 2017).

The nature of series [1]: Chemi-Luminescent Nitrogen Detection (CLND) kinetic solubility assay. The class given is physicochemical. The following applies: phosphate buffered saline, pH 7.4; kinetic aqueous solubility, Table 1; read-out: Solubility CLND. Summed up: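 10 mM DMSO stock diluted 5 μL into 100 uL pH 7.4 phosphate buffered saline, equilibrated 1 h at room temperature, then filtered. Filtrate quantified by calibrated flow-injection CLND; standard error ±30 μM, upper limit 500 μM.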

A short description of series [2]: Intrinsic clearance (CLint) assay, mouse liver microsomes. It counts as in vitro ADME. The conditions noted are these: Table 1. Summed up: (§1)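 Pooled liver microsomes (0.5 mg/mL protein) with test compound at 0.5 μM (0.5% DMSO), 5 mM MgCl2 and pH 7.4 phosphate buffer were run at 37°C; 1 mM NADPH started the reaction. Samples at 0-45 min were analysed by LC-MS/MS; t1/2 and CLint were derived from the ln peak-area-ratio slope.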

Series [3] concerns the target human serum albumin (Homo sapiens, UniProt P02768). The series can be described thus: Human serum albumin (HSA) binding assay. It counts as in vitro ADME. The conditions noted are these: Table 1. In outline:
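Gradient retention times measured on an immobilized HSA HPLC column with UV detection. Retention times converted to HSA binding values by a linear calibration against reference compounds of known binding, run before each batch.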

The nature of series [4]: Chrom logD assay. It counts as physicochemical. The following applies: pH 7.4, Table 1; read-out: Log D pH = 7.4. Summed up: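 Reversed-phase C18 HPLC with fast acetonitrile gradient starting from 100% pH 7.4 buffer; CHI from retention times via calibration standards. ChromlogD = 0.0857CHI − 2.00; assay error ±3 CHI or ±0.25 ChromlogD.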
Series [5] in a line: Plasma stability assay, human plasma. It counts as in vitro ADME. The conditions noted are these: 2 h at 37°C, Table 1. As for the experimental part:
(§2) Plasma stability of the compounds was assessed in CD1 mouse and human plasma. Plasma was spiked with 1 μL of a 10 mM of each test compound solution to produce a 1 uM incubation. Three separate 300 μl aliquots were then taken from each tube and incubated at 37°C for 2 h. At each time point (0, 15, 30, 60 and 120 min), 50 μL of plasma were collected from each sample. Samples were extracted by protein precipitation with 250 μL of 0.1% AcOH acetonitrile methanol 3–1 (v/v) containing 1uM internal standard and centrifuged for 10min at 2800rpm. Supernatants were collected prior the injection onto an LC-MS/MS system. Analyte/Internal standard peak area ratios were referenced to the zero time-point samples as 100% in order to determine the percentage of compound remaining for each time-point. Ln plots of the % remaining for each compound were used to determine the half-life for the plasma incubations.

In series [6] the test system is M. bovis. The conditions noted are these: cited from earlier work.
Series [7] can be described thus: Plasma stability assay, mouse plasma. The conditions noted are these: 2 h at 37°C, Table 1. The class given is in vitro ADME. The procedure:
as §2

Series [8] in a line: Intrinsic clearance (CLint) assay, human liver microsomes. It counts as in vitro ADME. Summed up:
as §1

Series [9] deals with intracellular mycobacterial survival in murine bone marrow-derived macrophages. On the set-up: method as in PMID 25229313. The conditions noted are these: cited from earlier work.
Series [10] in a line: Artificial membrane permeability assay. It counts as in vitro ADME. The following applies: PAMPA, pH 7.4; Table 1; read-out: Artificial membrane permeability. Summed up:
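PAMPA using L-α-phosphatidylcholine in cholesterol decane as the membrane, with 50 mM phosphate buffer containing 0.5% encapsin at pH 7.4 on both sides. Compound added to donor; plates shaken 3 h at room temperature in duplicate. Donor and receiver concentrations measured by HPLC; permeability reported in nm/sec.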

In series [11] the test system is Mtb H37Rv. The following applies: Table 1.

≈ marks a conversion by molar mass, not a printed value. Where “and” joins values, the source holds several entries; their conditions need not be identical. Equal entries are not always repeated. Non-standard residues stand in square brackets, D forms with d. Residues, ends and D or L forms follow the SMILES beside them. dOrn = NCCC[C@@H](N)C(=O)O

Sequence of human serum albumin (P02768 25-609): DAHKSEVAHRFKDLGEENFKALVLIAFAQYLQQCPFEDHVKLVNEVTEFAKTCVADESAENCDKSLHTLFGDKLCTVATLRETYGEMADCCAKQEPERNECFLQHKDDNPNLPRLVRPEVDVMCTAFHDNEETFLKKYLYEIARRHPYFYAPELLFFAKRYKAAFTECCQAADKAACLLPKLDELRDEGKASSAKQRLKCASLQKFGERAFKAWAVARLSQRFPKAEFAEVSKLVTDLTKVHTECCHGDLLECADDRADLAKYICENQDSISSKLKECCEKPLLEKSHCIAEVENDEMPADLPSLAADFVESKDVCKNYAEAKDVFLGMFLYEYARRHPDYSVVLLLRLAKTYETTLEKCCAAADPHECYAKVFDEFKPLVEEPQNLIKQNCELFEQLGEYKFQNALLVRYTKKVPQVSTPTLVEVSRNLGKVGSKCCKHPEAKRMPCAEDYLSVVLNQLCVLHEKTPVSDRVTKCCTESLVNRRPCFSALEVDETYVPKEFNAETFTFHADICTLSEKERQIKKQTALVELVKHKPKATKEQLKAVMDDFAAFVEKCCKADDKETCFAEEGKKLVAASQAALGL

`CC(C)C[C@@H]1NC(=O)[C@H](Cc2c[nH]c3ccccc23)NC(=O)[C@@H](CCCN)NC(=O)[C@H](CC(N)=O)NC(=O)[C@H](C(C)C)NC(=O)[C@@H](CC(C)C)NC1=O` [Compound 1c, wollamide B] (cyclo([dOrn]WL[dL]VN)) yielded an IC50 of 56 µM. Further, the solubility kinetic at 1 h in series [1] was 151 µg/mL (≈ 204 µM). In series [2], the “Mouse CLint” value is recorded as <0.50 mL/min/g. The “Mouse predicted % LBF” value in series [2] (liver blood flow) is reported as <16.83%. In addition, the half-life at 0.5 µM in series [2] (mouse, pooled mouse liver microsomes, pH 7.4, read-out: Mouse microsomal half-life) was > 139 min. Besides, the “% Human serum albumin binding” value in series [3] is 73% and 72.66%. The chromatographic logD in series [4] stood at 1.8. Further, in series [5], the “Plasma stability (% remaining), Human Plasma” value is “More than 90 % remaining”. Besides, the share remaining at 2 h, 1 uM in [5] (human, plasma, read-out: Plasma stability (% remaining), Human Plasma) was found to be 100%. Further, in [6], the IC50 is 3.1 µM. Also, in series [7], the “Plasma stability (% remaining), Mouse plasma” value was “More than 90 % remaining”. Also, the amount remaining at 2 h, 1 uM in [7] (CD1, mouse, plasma, read-out: Plasma stability (% remaining), Mouse plasma) was 90%. The “Human CLint” value in series [8] (Table 1) turned out to be 0.97 mL/min/g. Also, in series [8] (human, pooled human liver microsomes, pH 7.4, Table 1, read-out: Human microsomal half-life), the half-life at 0.5 µM came to 56.8 min. Besides, the “Human predicted % LBF” value in [8] (liver blood flow, Table 1) was 56.88%. Also, in series [8] (predicted hepatic clearance, microsomal stability), the “% LBF given as a fraction (metabolic stability class)” value is given as 1/2. Moreover, in series [9], the intracellular mycobacterial survival entry is “reduce the intracellular mycobacterial survival”. For the same compound, the Papp at 3 h in series [10] is < 0.3 ×10⁻⁶ cm/s. Besides, in series [11], the “Mtb H37Rv MIC” value turned out to be 0.6 µM.
